The molecules below were run against T1, prostanoid EP3 receptors (Homo sapiens, UniProt P43115) (assay: binding on prostanoid EP3 receptors (method of Abramovitz et al.)). Details: read-out: Activity (EP3 receptor binding, IC50 class).
T1 sequence (P43115 1-390): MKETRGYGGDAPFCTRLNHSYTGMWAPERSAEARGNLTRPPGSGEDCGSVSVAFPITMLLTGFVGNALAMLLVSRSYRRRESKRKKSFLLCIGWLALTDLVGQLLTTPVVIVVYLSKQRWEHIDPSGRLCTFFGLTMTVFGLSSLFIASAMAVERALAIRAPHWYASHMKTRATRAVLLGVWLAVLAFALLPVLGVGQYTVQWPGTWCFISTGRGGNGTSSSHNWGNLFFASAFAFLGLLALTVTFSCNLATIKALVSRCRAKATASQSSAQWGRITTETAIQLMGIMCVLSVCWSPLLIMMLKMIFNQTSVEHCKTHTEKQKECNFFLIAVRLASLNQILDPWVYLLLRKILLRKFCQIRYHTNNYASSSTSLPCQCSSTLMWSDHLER
Method: The compounds of the invention were assayed for their binding on prostanoid EP3 receptors according to the method of Abramovitz et al. [Bioch. Biophys.

Structure (SMILES) | IC50 [nM]
O=C(COc1cccc2[nH]cc(Sc3ccccc3Cl)c12)NS(=O)(=O)c1cc(Cl)c(Cl)s1 [Compound P213] | < 1000
O=C(C=Cc1cccc2c1N(Cc1ccc(Cl)cc1Cl)C(=O)C2(F)F)NS(=O)(=O)c1cccs1 [Compound P216] | < 1000
O=C(C=Cc1cccc2c1N(Cc1ccc3ccccc3c1)C(=O)C2)NS(=O)(=O)c1cccs1 [Compound P217] | < 1000
O=C(C=Cc1cccc2c1N(Cc1ccc3ccccc3c1)C(=O)C2(F)F)NS(=O)(=O)c1cccs1 [Compound P218] | < 1000
O=C(COc1cccc2[nH]cc(Sc3ccc4ccccc4c3)c12)NS(=O)(=O)c1ccc(F)cc1 [Compound P225] | < 1000
O=C(COc1cccc2[nH]cc(Sc3ccc4ccccc4c3)c12)NS(=O)(=O)c1cc(F)c(F)cc1F [Compound P226] | < 1000
Cn1nnnc1Sc1c[nH]c2cccc(OCC(=O)NS(=O)(=O)c3cc(Cl)c(Cl)s3)c12 [Compound P227] | < 1000
CN1C(=O)C(Sc2ccc3ccccc3c2)c2c(OCC(=O)NS(=O)(=O)c3cc(Cl)c(Cl)s3)cccc21 (stereo not shown) [Compound P229] | < 1000
Cc1nnc(Sc2c[nH]c3cccc(OCC(=O)NS(=O)(=O)c4cc(Cl)c(Cl)s4)c23)s1 [Compound P230] | < 1000
CC(=O)Nc1ccc(Sc2c[nH]c3cccc(OCC(=O)NS(=O)(=O)c4cc(Cl)c(Cl)s4)c23)cc1 [Compound P233] | < 1000
O=C(COc1cccc2[nH]cc(S(=O)(=O)c3ccc(F)cc3Cl)c12)NS(=O)(=O)c1cc(Cl)c(Cl)s1 [Compound P234] | < 1000
CC(=O)Nc1ccc(S(=O)(=O)c2c[nH]c3cccc(OCC(=O)NS(=O)(=O)c4cc(Cl)c(Cl)s4)c23)cc1 [Compound P235] | < 1000
O=C(COc1cccc2[nH]cc(S(=O)(=O)c3ccc4ccccc4c3)c12)NS(=O)(=O)c1ccc(F)cc1 [Compound P236] | < 1000
O=C(COc1cccc2[nH]cc(S(=O)(=O)c3ccc4ccccc4c3)c12)NS(=O)(=O)c1cc(F)c(F)cc1F [Compound P237] | < 1000
Cn1nnnc1S(=O)(=O)c1c[nH]c2cccc(OCC(=O)NS(=O)(=O)c3cc(Cl)c(Cl)s3)c12 [Compound P239] | < 1000
O=C(COc1cccc2[nH]cc(S(=O)(=O)c3nc[nH]n3)c12)NS(=O)(=O)c1cc(Cl)c(Cl)s1 [Compound P240] | < 1000
O=C(C=Cc1cccc2c1C(Nc1ccc3ccccc3c1)C(=O)N2)NS(=O)(=O)c1cc(Cl)c(Cl)s1 (stereo not shown) [Compound P241] | < 1000
CN1C(=O)C(Nc2ccc3ccccc3c2)c2c(C=CC(=O)NS(=O)(=O)c3cc(Cl)c(Cl)s3)cccc21 (stereo not shown) [Compound P242] | < 1000
O=C(COc1cccc2[nH]cc(Sc3ccc4ccccc4c3)c12)NS(=O)(=O)C(F)(F)F [Compound P243] | < 1000
O=C(C=Cc1cccc2c1C(=Nc1ccc3ccccc3c1)C(=O)N2)NS(=O)(=O)c1cc(Cl)c(Cl)s1 [Compound P244] | < 1000
CN1C(=O)C(=Nc2ccc3ccccc3c2)c2c(C=CC(=O)NS(=O)(=O)c3cc(Cl)c(Cl)s3)cccc21 [Compound P245] | < 1000

Structure (SMILES) | IC50 [nM]
CN1C(=O)C(S(=O)(=O)c2ccc3ccccc3c2)c2c(OCC(=O)NS(=O)(=O)c3cc(Cl)c(Cl)s3)cccc21 (stereo not shown) [Compound P248] | < 1000
CN1C(=O)C(Nc2ccc(Cl)cc2Cl)c2c(C=CC(=O)NS(=O)(=O)c3cc(Cl)c(Cl)s3)cccc21 (stereo not shown) [Compound P252] | < 1000
COc1cccc(CN2C(=O)CC3(C)CCCC(C=CC(=O)NS(=O)(=O)c4cc(Cl)c(Cl)s4)=C23)c1 (stereo not shown) [Compound P260] | < 1000
CC12CCCC(C=CC(=O)NS(=O)(=O)c3cc(Cl)c(Cl)s3)=C1N(Cc1cccc(F)c1)C(=O)C2 (stereo not shown) [Compound P262] | < 1000
CC12CCCC(C=CC(=O)NS(=O)(=O)c3cc(Cl)c(Cl)s3)=C1N(Cc1ccc(F)cc1)C(=O)C2 (stereo not shown) [Compound P263] | < 1000
CC12CCCC(/C=C/C(=O)NS(=O)(=O)c3cc(Cl)c(Cl)s3)=C1N(Cc1ccc(F)c(F)c1)C(=O)C2 (stereo not shown) [Compound P264] | < 1000
CN1C(=O)C(Oc2ccc3ccccc3c2)c2c(/C=C/C(=O)NS(=O)(=O)c3cc(Cl)c(Cl)s3)cccc21 (stereo not shown) [Compound P265, 4,5-dichloro-thiophene-2-sulfonic acid {(E)-3-[1-methyl-3-(naphthalen-2-yloxy)-2-oxo-2,3-dihydro-1H-indol-4-yl]-acryloyl}-amide] | < 1000
CC12CCCC(C=CC(=O)NS(=O)(=O)c3cc(Cl)cc(Cl)c3)=C1N(Cc1ccc(F)c(F)c1)C(=O)C2 (stereo not shown) [Compound P266] | < 1000
CC12CCCC(C=CC(=O)NS(=O)(=O)c3ccc(OC(F)(F)F)cc3)=C1N(Cc1ccc3ccccc3c1)C(=O)C2 (stereo not shown) [Compound P269] | < 1000
CN1C(=O)C(Nc2ccc(Cl)c(Cl)c2)c2c(C=CC(=O)NS(=O)(=O)c3cc(Cl)c(Cl)s3)cccc21 (stereo not shown) [Compound P271] | < 1000
CN1C(=O)C(Nc2ccc(F)c(F)c2)c2c(C=CC(=O)NS(=O)(=O)c3cc(Cl)c(Cl)s3)cccc21 (stereo not shown) [Compound P272] | < 1000
CC(C)(C)OC(=O)N1CCCc2cccc(OCC(=O)NS(=O)(=O)c3cccs3)c21 [Compound P273] | < 1000
CC12CCCC(C=CC(=O)NS(=O)(=O)c3ccc(F)cc3)=C1N(Cc1ccc(Cl)cc1Cl)C(=O)C2 (stereo not shown) [Compound P274] | < 1000
CC12CCCC(C=CC(=O)NS(=O)(=O)c3cc(F)c(F)cc3F)=C1N(Cc1ccc(Cl)cc1Cl)C(=O)C2 (stereo not shown) [Compound P275] | < 1000
CC12CCCC(C=CC(=O)NS(=O)(=O)c3cccs3)=C1N(Cc1ccc(Cl)cc1Cl)C(=O)C2 (stereo not shown) [Compound P276] | < 1000
Cn1cc(Oc2ccc3ccccc3c2)c2c(C=CC(=O)NS(=O)(=O)c3cc(Cl)c(Cl)s3)cccc21 [Compound P277] | < 1000
CC12CCCC(C=CC(=O)NS(=O)(=O)c3cc(Cl)c(Cl)s3)=C1N(Cc1ccc(Cl)cc1Cl)C(=O)C2 (stereo not shown) [Compound P278] | < 1000
CC12CCCC(C=CC(=O)NS(=O)(=O)c3ccc(Cl)s3)=C1N(Cc1ccc(Cl)cc1Cl)C(=O)C2 (stereo not shown) [Compound P279] | < 1000
CC12CCCC(C=CC(=O)NS(=O)(=O)c3cc(Cl)cc(Cl)c3)=C1N(Cc1ccc(Cl)cc1Cl)C(=O)C2 (stereo not shown) [Compound P280] | < 1000
CC12CCCC(C=CC(=O)NS(=O)(=O)c3cccc(Cl)c3)=C1N(Cc1ccc(Cl)cc1Cl)C(=O)C2 (stereo not shown) [Compound P281] | < 1000
CC12CCCC(C=CC(=O)NS(=O)(=O)c3cc(F)cc(F)c3)=C1N(Cc1ccc(Cl)cc1Cl)C(=O)C2 (stereo not shown) [Compound P282] | < 1000

Structure (SMILES) | IC50 [nM]
CC12CCCC(C=CC(=O)NS(=O)(=O)c3ccc(F)c(F)c3)=C1N(Cc1ccc(Cl)cc1Cl)C(=O)C2 (stereo not shown) [Compound P283] | < 1000
Cn1nc(NS(=O)(=O)c2cc(Cl)c(Cl)s2)c2c(Oc3ccc4ccccc4c3)cccc21 [Compound P284, 4,5-Dichloro-thiophene-2-sulfonic acid [1-methyl-4-(naphthalen-2-yloxy)-1H-indazol-3-yl]-amide] | 1000 to 10000
CC12CCCC(C=CC(=O)NS(=O)(=O)c3cc(Cl)c(Cl)s3)=C1N(Cc1cccc(Cl)c1)C(=O)C2 (stereo not shown) [Compound P285] | < 1000
O=C(C=Cc1cccc2c1C(Nc1cc(Cl)cc(Cl)c1)C(=O)N2)NS(=O)(=O)c1cc(Cl)c(Cl)s1 (stereo not shown) [Compound P286] | < 1000
O=C(C=Cc1cccc2c1C(Nc1ccc(Cl)cc1Cl)C(=O)N2)NS(=O)(=O)c1cc(Cl)c(Cl)s1 (stereo not shown) [Compound P287] | < 1000
Cn1cc(C=CC(=O)NS(=O)(=O)c2cc(Cl)c(Cl)s2)c2c(Oc3ccc(Cl)c(Cl)c3)cccc21 [Compound P290] | < 1000
Cn1cc(C=CC(=O)NS(=O)(=O)c2cc(Cl)c(Cl)s2)c2c(Oc3cccc(Cl)c3Cl)cccc21 [Compound P291] | < 1000
Cn1cc(C=CC(=O)NS(=O)(=O)c2cc(F)c(F)cc2F)c2c(Oc3ccc(Cl)c(Cl)c3)cccc21 [Compound P292] | < 1000
Cn1cc(C=CC(=O)NS(=O)(=O)c2ccc(F)c(F)c2)c2c(Oc3ccc(Cl)c(Cl)c3)cccc21 [Compound P293] | < 1000
CC12CCCC(C=CC(=O)NS(=O)(=O)c3ccc(F)c(F)c3)=C1N(Cc1ccc(F)cc1)C(=O)C2 (stereo not shown) [Compound P294] | < 1000
CC12CCCC(C=CC(=O)NS(=O)(=O)c3cc(F)cc(F)c3)=C1N(Cc1ccc(F)cc1)C(=O)C2 (stereo not shown) [Compound P295] | < 1000
CC12CCCC(C=CC(=O)NS(=O)(=O)c3cc(F)c(F)cc3F)=C1N(Cc1cccc(Cl)c1Cl)C(=O)C2 (stereo not shown) [Compound P296] | < 1000
CC12CCCC(C=CC(=O)NS(=O)(=O)c3ccc(F)c(F)c3)=C1N(Cc1cccc(Cl)c1Cl)C(=O)C2 (stereo not shown) [Compound P297] | < 1000
CC12CCCC(C=CC(=O)NS(=O)(=O)c3cc(F)cc(F)c3)=C1N(Cc1cccc(Cl)c1Cl)C(=O)C2 (stereo not shown) [Compound P298] | < 1000
CC12CCCC(C=CC(=O)NS(=O)(=O)c3cc(Cl)c(Cl)s3)=C1N(Cc1cccc(Cl)c1Cl)C(=O)C2 (stereo not shown) [Compound P299] | < 1000
CC12CCCC(C=CC(=O)NS(=O)(=O)c3cc(F)c(F)cc3F)=C1N(Cc1ccc(F)cc1)C(=O)C2 (stereo not shown) [Compound P300] | < 1000
Cn1cc(C=CC(=O)NS(=O)(=O)c2ccc(F)c(F)c2)c2c(Oc3ccc(Cl)cc3Cl)cccc21 [Compound P302] | < 1000
Cn1cc(C=CC(=O)NS(=O)(=O)c2cc(Cl)c(Cl)s2)c2c(Oc3ccc(Cl)cc3Cl)cccc21 [Compound P303] | < 1000
CC12CCCC(C=CC(=O)NS(=O)(=O)c3ccc(F)c(F)c3)=C1N(Cc1ccc(F)c(F)c1)C(=O)C2 (stereo not shown) [Compound P304] | < 1000
